Source: patent US20230390274A1 (EPIRIUM BIO INC., priority 2020, published 2023)

Target: 15-PGDH/HPGD (Homo sapiens (Human), UniProt P15428)
Experiment: hPGDH inhibitor screening biochemical assay
Conditions: 10 nM 15-PGDH/HPGD, 15 μM PGE2, 0.25 mM NAD; read-out: hPGDH: Average IC50
Description: A hydroxyprostaglandin dehydrogenase inhibition screening biochemical assay can be performed to assess the synthesized inhibitors provided herein. Provided herein is an exemplary biochemical assay for hPGDH inhibitor screening.
The in vitro biochemical assay can be performed in white, 384 plates in total 20 μl reaction volume consisting of 10 nM of 15-PGDH/HPGD (R&D System #5660-DH), 15 μM Prostaglandin E2 (Sigma, Cat #P5640-10MG) and 0.25 mM β-Nicotinamide adenine dinucleotide sodium salt (Sigma, Cat #N0632-5G) made in reaction buffer (50 mM Tris-HCl, pH 7.5, 0.01% Tween 20) at 10-point dose response curve for test/tool compounds. Briefly, 5 μl (4×) of compounds solution and 5 μl (final concentration, 10 nM) of enzyme solution is added to white 384 well plates and incubated for 10 mins at 37° C. 5 μl (4×) of Prostaglandin E2 and 5 μl (4×) of β-Nicotinamide adenine dinucleotide sodium salt is added to the wells and incubated for 10 mins at rt. Fluorescence is recorded at ex/em=340 nm/485 nm. The percentage (%) inhibition of enzyme activity was determined relative to […] (1% DMSO) and IC50 was calculated using GraphPad prism software (four parameter-variable slope equation).

Chain of 15-PGDH/HPGD (P15428 whole entry): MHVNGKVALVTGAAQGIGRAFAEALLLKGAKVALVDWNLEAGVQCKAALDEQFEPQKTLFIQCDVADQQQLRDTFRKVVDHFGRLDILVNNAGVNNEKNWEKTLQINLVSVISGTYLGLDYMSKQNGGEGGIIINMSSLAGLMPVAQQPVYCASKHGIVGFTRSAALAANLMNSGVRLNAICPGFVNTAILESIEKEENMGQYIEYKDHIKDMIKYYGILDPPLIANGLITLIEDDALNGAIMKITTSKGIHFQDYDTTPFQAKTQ

IC50 | SMILES
< 100 nM | CCOc1ccc(-n2ccc3cc(C(=O)N4CCCCC4)cnc32)cc1 [A-151]
< 100 nM | CS(=O)(=O)c1cccc(-n2ccc3cc(C(=O)N4CCCCC4)cnc32)c1 [A-152]
< 100 nM | CS(=O)(=O)c1ccc(-n2ccc3cc(C(=O)N4CCCCC4)cnc32)cc1 [A-153]
< 100 nM | O=C(c1cnc2c(ccn2-c2ccc(O)nc2)c1)N1CCCCC1 [A-155]
< 100 nM | NC(=O)c1ccc(-n2ccc3cc(C(=O)N4CCCCC4)cnc32)cc1 [A-159]
< 100 nM | NCc1ccc(-n2ccc3cc(C(=O)N4CCCCC4)cnc32)cc1 [A-162]
< 100 nM | O=C(c1cnc2c(ccn2-c2ccc(CO)cc2)c1)N1CCCCC1 [A-163]
< 100 nM | COc1ccc(-n2cc(Cl)c3cc(C(=O)N4CCC(F)CC4)cnc32)cc1 [A-165, (3-chloro-1-(4-methoxyphenyl)-1H-pyrrolo[2,3-b]pyridin-5-yl)(4-fluoropiperidin-1-yl)methanone]
< 100 nM | COc1ccc(-n2cc(Cl)c3cc(C(=O)N4CCCCC4)cnc32)cc1 [A-166]
≥ 1000 nM | Cc1nc2c(ccn2-c2cnccn2)cc1C(=O)N1CCC(F)CC1 [A-174]
≥ 1000 nM | CCC(CC)n1cnc2cc(C(=O)N3CCC(F)CC3)cnc21 [A-176]
< 100 nM | CCOc1ccc(-n2cnc3cc(C(=O)N4CCCCC4)cnc32)cc1 [A-186]
< 100 nM | N#Cc1ccc(-n2cnc3cc(C(=O)N4CCC(F)(F)CC4)cnc32)cc1 [A-193]
< 100 nM | N#Cc1ccc(-n2cnc3cc(C(=O)N4CC(Cl)C4)cnc32)cc1 [A-194]
< 100 nM | Cc1c(C(=O)N2CCC(F)CC2)cnc2c1ccn2-c1ccc(C#N)cc1 [A-206, 4-(5-(4-fluoropiperidine-1-carbonyl)-4-methyl-1H-pyrrolo[2,3-b]pyridin-1-yl)benzonitrile]
< 100 nM | Nc1ncc(-n2ccc3cc(C(=O)N4CCCCC4)cnc32)cc1Cl [A-209]
< 100 nM | N/C(=N\O)c1ccc(-n2ccc3cc(C(=O)N4CCCCC4)cnc32)cc1 [A-212]
< 100 nM | Cc1nc(-c2cccc(-n3ccc4cc(C(=O)N5CCCCC5)cnc43)c2)no1 [A-214]
< 100 nM | CC(C)(C)CNC(=O)c1cncc(-n2ccc3cc(C(=O)N4CCC(F)(F)CC4)cnc32)c1 [A-217, 5-(5-(4,4-difluoropiperidine-1-carbonyl)-1H-pyrrolo[2,3-b]pyridin-1-yl)-N-neopentylnicotinamide]
< 100 nM | CCC(CC)NC(=O)c1cncc(-n2ccc3cc(C(=O)N4CCC(F)(F)CC4)cnc32)c1 [A-219, 5-(5-(4,4-difluoropiperidine-1-carbonyl)-1H-pyrrolo[2,3-b]pyridin-1-yl)-N-(pentan-3-yl)nicotinamide]
< 100 nM | CS(=O)(=O)NCCNC(=O)c1ccc(-n2ccc3cc(C(=O)N4CCC(F)(F)CC4)cnc32)cc1 [A-220, 4-(5-(4,4-difluoropiperidine-1-carbonyl)-1H-pyrrolo[2,3-b]pyridin-1-yl)-N-(2-(methylsulfonamido)ethyl)benzamide]

More lines, now with the values behind:

SMILES | IC50
CN(C)c1cccc(-n2ccc3cc(C(=O)N4CCCCC4)cnc32)c1 [A-149] | < 100 nM
CN(C)c1ccc(-n2ccc3cc(C(=O)N4CCCCC4)cnc32)cc1 [A-150] | < 100 nM
Nc1cc(-n2ccc3cc(C(=O)N4CCCCC4)cnc32)ccn1 [A-154] | < 100 nM
Nc1cncc(-n2ccc3cc(C(=O)N4CCCCC4)cnc32)c1 [A-156] | < 100 nM
COc1ccc(-n2ccc3cc(C(=O)N4CCCCC4)cnc32)cn1 [A-157] | < 100 nM
Nc1ccc(-n2ccc3cc(C(=O)N4CCCCC4)cnc32)cn1 [A-158] | < 100 nM
NC(=O)c1cccc(-n2ccc3cc(C(=O)N4CCCCC4)cnc32)c1 [A-160] | < 100 nM
O=C(c1cnc2c(ccn2-c2cccc(CO)c2)c1)N1CCCCC1 [A-164] | < 100 nM
O=C(c1cnc2c(c1)c(Cl)cn2-c1ccc2c(c1)OC(F)(F)O2)N1CCC(F)CC1 [A-167] | < 100 nM
O=C(c1cnc2c(c1)c(Cl)cn2-c1ccc2c(c1)OC(F)(F)O2)N1CCCCC1 [A-168] | < 100 nM
COc1cccc(-n2cc(Cl)c3cc(C(=O)N4CCCCC4)cnc32)c1 [A-169] | < 100 nM
O=C(c1cnc2c(c1)c(Cl)cn2-c1cncc(Cl)c1)N1CCCCC1 [A-170] | < 100 nM
COc1cncc(-n2cc(Cl)c3cc(C(=O)N4CCCCC4)cnc32)c1 [A-171] | < 100 nM
O=C(c1cnc2c(ccn2-c2cnccn2)c1Cl)N1CCC(F)CC1 [A-172] | < 100 nM
O=C(c1cnc2c(c(Cl)cn2-c2cnccn2)c1Cl)N1CCC(F)CC1 [A-173] | < 100 nM
Cc1nc2c(cc1C(=O)N1CCC(F)CC1)c(Cl)cn2-c1cnccn1 [A-175] | ≥ 1000 nM
O=C(c1cnc2c(c1)ncn2-c1ccc(F)cc1)N1CCCCC1 [A-178] | < 100 nM

SMILES | IC50
O=C(c1cnc2c(c1)ncn2-c1ccc(F)c(F)c1)N1CCCCC1 [A-180] | < 100 nM
O=C(c1cnc2c(c1)ncn2-c1ccc(OC(F)(F)F)cc1)N1CCCCC1 [A-182] | < 100 nM
NC(=O)c1ccc(-n2cnc3cc(C(=O)N4CCC(F)(F)CC4)cnc32)cc1 [A-195] | < 100 nM
COc1ccc(-n2c(C)nc3cc(C(=O)N4CCCCC4)cnc32)cc1 [A-197] | < 100 nM
COc1ccc(-n2c(CCNC(C)=O)nc3cc(C(=O)N4CCC(F)CC4)cnc32)cc1 [A-198] | ≥ 1000 nM
Cc1c(C(=O)N2CCC(F)CC2)cnc2c1ccn2-c1ccc(C(N)=O)cc1 [A-202, 4-(5-(4-fluoropiperidine-1-carbonyl)-4-methyl-1H-pyrrolo[2,3-b]pyridin-1-yl)benzamide] | < 100 nM
NC(=O)c1ccc(-n2cc(Cl)c3cc(C(=O)N4CCC(F)CC4)cnc32)cc1 [A-203, 4-(3-chloro-5-(4-fluoropiperidine-1-carbonyl)-1H-pyrrolo[2,3-b]pyridin-1-yl)benzamide] | < 100 nM
NC(=O)c1ccc(-n2cc(Cl)c3cc(C(=O)N4CCCCC4)cnc32)cc1 [A-204, 4-(3-chloro-5-(piperidine-1-carbonyl)-1H-pyrrolo[2,3-b]pyridin-1-yl)benzamide] | < 100 nM
N#Cc1ccc(-n2cc(Cl)c3cc(C(=O)N4CCC(F)CC4)cnc32)cc1 [A-207] | < 100 nM
Cc1cc(-n2ccc3cc(C(=O)N4CCCCC4)cnc32)cnc1N [A-208] | < 100 nM
C[C@@H]1C[C@H](C)CN(C(=O)c2cnc3c(ccn3-c3ccc(C(N)=O)cc3)c2)C1 [A-210, 4-(5-((3R,5S)-3,5-dimethylpiperidine-1-carbonyl)-1H-pyrrolo[2,3-b]pyridin-1-yl)benzamide] | < 100 nM
O=C(c1cnc2c(ccn2-c2ccc3[nH]ncc3c2)c1)N1CCC(F)(F)CC1 [A-211] | < 100 nM
N/C(=N\O)c1cccc(-n2ccc3cc(C(=O)N4CCCCC4)cnc32)c1 [A-213] | < 100 nM
CC(C)(C)C(=O)NCCNC(=O)c1ccc(-n2ccc3cc(C(=O)N4CCC(F)(F)CC4)cnc32)cc1 [A-215, 4-(5-(4,4-difluoropiperidine-1-carbonyl)-1H-pyrrolo[2,3-b]pyridin-1-yl)-N-(2-pivalamidoethyl)benzamide] | < 100 nM
CC(C)NC(=O)c1ccc(-n2ccc3cc(C(=O)N4CCC(F)(F)CC4)cnc32)cc1 [A-216] | < 100 nM
CC(C)(C)NC(=O)c1ccc(-n2ccc3cc(C(=O)N4CCC(F)(F)CC4)cnc32)cn1 [A-218, N-(tert-butyl)-5-(5-(4,4-difluoropiperidine-1-carbonyl)-1H-pyrrolo[2,3-b]pyridin-1-yl)picolinamide] | < 100 nM
